ChEMBL document CHEMBL1201862, “PubChem BioAssay data set” (2004)
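Briefly, cells in 96-well plates were exposed to five compound concentrations for 48 h, and endpoints were estimated by linear interpolation. Here, GI50 denotes the concentration required for 50% inhibition of growth.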 Calls of active or inactive are those of the source. Cut-off read from the data, not from the text of the source: active = GI50 up to about 1.1 µM and inactive = higher.

How the values were obtained:
Assay in all cases: DTP human tumour cell line panel, 48 h
[1] = system: ACHN
[2] = system: OVCAR-5
[3] = system: MDA-N
[4] = system: OVCAR-4
[5] = system: SK-MEL-28
[6] = system: NCI-H460
[7] = system: UO-31
[8] = system: 786-0
[9] = system: MDA-MB-435
[10] = system: NCI/ADR-RES
[11] = system: OVCAR-3
[12] = system: K562
[13] = system: SN12C
[14] = system: SK-MEL-5
[15] = system: KM12
[16] = system: SF-295
[17] = system: MCF7
[18] = system: HOP-92
[19] = system: HL-60

SMILES	GI50 [1]	GI50 [2]	GI50 [3]	GI50 [4]	GI50 [5]	GI50 [6]	GI50 [7]	GI50 [8]	GI50 [9]	GI50 [10]	GI50 [11]	GI50 [12]	GI50 [13]	GI50 [14]	GI50 [15]	GI50 [16]	GI50 [17]	GI50 [18]	GI50 [19]
C=CC[C@@H]1C(=O)[C@@]2(O[Si](C(C)C)(C(C)C)C(C)C)CC[C@@H]1C[C@H]2NC(=O)OCC(Cl)(Cl)Cl	73.8 µM (inactive)	> 100 µM (inactive)	77.1 µM (inactive)	> 100 µM (inactive)	> 100 µM (inactive)	35.5 µM (inactive)	56.5 µM (inactive)	77.1 µM (inactive)	> 100 µM (inactive)	> 100 µM (inactive)	90.8 µM (inactive)	61.8 µM (inactive)	45.3 µM (inactive)	> 100 µM (inactive)	> 100 µM (inactive)	5.35 µM (inactive)	–	–	–
NCCCN1CCN(CCCNc2ccc3ncn4c5ccccc5c(=O)c2c34)CC1	1.49 µM (inactive)	3.61 µM (inactive)	1.45 µM (inactive)	0.728 µM (active)	4.47 µM (inactive)	1.31 µM (inactive)	5.28 µM (inactive)	1.29 µM (inactive)	1.46 µM (inactive)	13.7 µM (inactive)	4.07 µM (inactive)	1.09 µM (active)	0.826 µM (active)	0.791 µM (active)	3.29 µM (inactive)	3.71 µM (inactive)	1.32 µM (inactive)	1.36 µM (inactive)	0.861 µM (active)
CCOC(=O)C(=O)Nc1c(C)cccc1CC	> 100 µM (inactive)	> 100 µM (inactive)	–	> 100 µM (inactive)	> 100 µM (inactive)	> 100 µM (inactive)	> 100 µM (inactive)	> 100 µM (inactive)	–	–	> 100 µM (inactive)	> 100 µM (inactive)	> 100 µM (inactive)	> 100 µM (inactive)	> 100 µM (inactive)	> 100 µM (inactive)	–	> 100 µM (inactive)	> 100 µM (inactive)
CCc1cc2c(cc1C(=O)CCC(=O)O)CC1(C2)Cc2cc(CC)c(C(=O)CCC(=O)O)cc2C1	> 100 µM (inactive)	> 100 µM (inactive)	> 100 µM (inactive)	> 100 µM (inactive)	35.6 µM (inactive)	> 100 µM (inactive)	> 100 µM (inactive)	> 100 µM (inactive)	> 100 µM (inactive)	> 100 µM (inactive)	> 100 µM (inactive)	91.2 µM (inactive)	> 100 µM (inactive)	> 100 µM (inactive)	> 100 µM (inactive)	> 100 µM (inactive)	> 100 µM (inactive)	> 100 µM (inactive)	> 100 µM (inactive)
CNS(=O)(=O)NNS(=O)(=O)c1ccc(C)cc1	> 100 µM (inactive)	> 100 µM (inactive)	–	> 100 µM (inactive)	> 100 µM (inactive)	> 100 µM (inactive)	> 100 µM (inactive)	> 100 µM (inactive)	–	–	> 100 µM (inactive)	> 100 µM (inactive)	> 100 µM (inactive)	> 100 µM (inactive)	> 100 µM (inactive)	> 100 µM (inactive)	–	> 100 µM (inactive)	> 100 µM (inactive)
CCOC(=O)c1c(N2CCCC2)nsc1Nc1ccc(F)cc1	31.2 µM (inactive)	25.4 µM (inactive)	34.9 µM (inactive)	64.4 µM (inactive)	54.3 µM (inactive)	27 µM (inactive)	16 µM (inactive)	26.1 µM (inactive)	28.8 µM (inactive)	34 µM (inactive)	> 100 µM (inactive)	29.8 µM (inactive)	36.3 µM (inactive)	18 µM (inactive)	42.2 µM (inactive)	60 µM (inactive)	–	28.7 µM (inactive)	20.4 µM (inactive)
Cc1cc(N(CCC#N)CCC#N)ccc1/N=N/c1ccc([N+](=O)[O-])cc1	95.9 µM (inactive)	> 100 µM (inactive)	–	19.7 µM (inactive)	> 100 µM (inactive)	39.4 µM (inactive)	> 100 µM (inactive)	43 µM (inactive)	–	–	47.2 µM (inactive)	> 100 µM (inactive)	65.8 µM (inactive)	> 10 µM (inactive)	> 100 µM (inactive)	56.4 µM (inactive)	–	55 µM (inactive)	> 100 µM (inactive)
C#CC(O)/C=C/C(O)CCCC(O)CC#CC(O)C#CCCCCC(O)/C=C/CCCC(=O)CCCCCCCCCCCCCCCC(O)C(O)C#CC(=O)O (centres undefined)	> 25 µM (inactive)	> 25 µM (inactive)	> 25 µM (inactive)	> 25 µM (inactive)	> 25 µM (inactive)	> 25 µM (inactive)	> 25 µM (inactive)	> 25 µM (inactive)	> 25 µM (inactive)	> 25 µM (inactive)	–	> 25 µM (inactive)	> 25 µM (inactive)	> 25 µM (inactive)	> 25 µM (inactive)	> 25 µM (inactive)	> 25 µM (inactive)	> 25 µM (inactive)	> 25 µM (inactive)
C=CC1(C)/C(=N\O)C(C)(CC)C(=O)N1O (centres undefined)	> 100 µM (inactive)	> 100 µM (inactive)	–	> 100 µM (inactive)	> 100 µM (inactive)	> 100 µM (inactive)	> 100 µM (inactive)	> 100 µM (inactive)	–	–	> 100 µM (inactive)	> 100 µM (inactive)	> 100 µM (inactive)	> 100 µM (inactive)	> 100 µM (inactive)	> 100 µM (inactive)	–	> 100 µM (inactive)	> 100 µM (inactive)
COc1cc(C(=O)CC2(O)C(=O)Nc3c(Cl)cc(Cl)cc32)ccc1O (centres undefined)	57.1 µM (inactive)	> 100 µM (inactive)	–	60.8 µM (inactive)	> 100 µM (inactive)	75.7 µM (inactive)	37.9 µM (inactive)	> 100 µM (inactive)	–	–	46.3 µM (inactive)	35.5 µM (inactive)	> 100 µM (inactive)	27.6 µM (inactive)	78.3 µM (inactive)	69.2 µM (inactive)	–	23.8 µM (inactive)	36.2 µM (inactive)
CO[C@]12CC(=O)C3(C(C[C@H]4CC5CCC6=CC(=O)CC[C@]6(OC(C)=O)C5C[C@@]43C)C1)C1C[C@H]3[C@@H]4CCC5=CC(=O)CC[C@]5(OC(C)=O)[C@H]4CC[C@]3(C)C12 (some centres undefined)	> 100 µM (inactive)	> 100 µM (inactive)	58.2 µM (inactive)	> 100 µM (inactive)	> 100 µM (inactive)	> 100 µM (inactive)	> 100 µM (inactive)	> 100 µM (inactive)	> 100 µM (inactive)	> 100 µM (inactive)	> 100 µM (inactive)	> 100 µM (inactive)	> 100 µM (inactive)	39.4 µM (inactive)	–	> 100 µM (inactive)	> 100 µM (inactive)	> 100 µM (inactive)	> 100 µM (inactive)
CC(=O)CCn1[nH]c(=O)c(Cl)c(Cl)c1=O	> 100 µM (inactive)	> 100 µM (inactive)	–	> 100 µM (inactive)	> 100 µM (inactive)	> 100 µM (inactive)	> 100 µM (inactive)	> 100 µM (inactive)	–	–	> 100 µM (inactive)	> 100 µM (inactive)	> 100 µM (inactive)	> 100 µM (inactive)	> 100 µM (inactive)	> 100 µM (inactive)	–	> 100 µM (inactive)	> 100 µM (inactive)
NC1(C(=O)O)CCC(C(=O)O)CC1 (centres undefined)	> 100 µM (inactive)	> 100 µM (inactive)	–	> 100 µM (inactive)	> 100 µM (inactive)	> 100 µM (inactive)	> 100 µM (inactive)	> 100 µM (inactive)	–	–	> 100 µM (inactive)	> 100 µM (inactive)	> 100 µM (inactive)	> 100 µM (inactive)	> 100 µM (inactive)	> 100 µM (inactive)	–	> 100 µM (inactive)	> 100 µM (inactive)
COCCOC(=O)C1=C(O)c2ccccc2S(=O)(=O)N1C	> 100 µM (inactive)	> 100 µM (inactive)	> 100 µM (inactive)	> 100 µM (inactive)	> 100 µM (inactive)	> 100 µM (inactive)	> 100 µM (inactive)	> 100 µM (inactive)	> 100 µM (inactive)	> 100 µM (inactive)	> 100 µM (inactive)	> 100 µM (inactive)	> 100 µM (inactive)	> 100 µM (inactive)	> 100 µM (inactive)	> 100 µM (inactive)	–	> 100 µM (inactive)	> 100 µM (inactive)
CCOC(=O)C1=C(Nc2ccc(NC3=C(C(=O)OCC)C(=O)CS3)cc2)SCC1=O	22 µM (inactive)	22.7 µM (inactive)	–	30.9 µM (inactive)	16.8 µM (inactive)	30.1 µM (inactive)	17.5 µM (inactive)	14.6 µM (inactive)	–	–	36.7 µM (inactive)	30.5 µM (inactive)	19.5 µM (inactive)	19.1 µM (inactive)	21.5 µM (inactive)	26.5 µM (inactive)	–	24.6 µM (inactive)	32.7 µM (inactive)
C=CCO[C@]1(CC=C)C(=O)C(=O)OC1C1COC(C)(C)O1 (some centres undefined)	16.6 µM (inactive)	> 100 µM (inactive)	36 µM (inactive)	–	> 10 µM (inactive)	65.2 µM (inactive)	84.5 µM (inactive)	35.1 µM (inactive)	36 µM (inactive)	37.4 µM (inactive)	45.7 µM (inactive)	27.4 µM (inactive)	34.4 µM (inactive)	36.1 µM (inactive)	18.8 µM (inactive)	> 100 µM (inactive)	19.1 µM (inactive)	22.3 µM (inactive)	> 10 µM (inactive)
